± gives the uncertainty stated by the source.
Test: xn = mol fraction of the nth substance listed

CCC(=O)[O-].C[N+](C)(C)CCO + CCCO + O
100 kPa, x1 = 0.00408, x2 = 0.5431
Conditions | viscosity [mPa·s]
288.15 K | 3.537 ± 0.039
298.15 K | 2.571 ± 0.028
308.15 K | 1.931 ± 0.021

CCCC[n+]1ccn(C)c1.[Br-] + CCCOCCO
viscosity [mPa·s], 100 kPa
Conditions | x1 = 0.1001 | x1 = 0.2003 | x1 = 0.2994 | x1 = 0.4 | x1 = 0.5002 | x1 = 0.6002 | x1 = 0.701 | x1 = 0.7969 | x1 = 0.9003 | x1 = 1
298.15 K | 15.5 ± 1.7 | 50 ± 5.2 | 100 ± 10 | 152 ± 16 | 204 ± 22 | 270 ± 29 | 378 ± 42 | 560 ± 64 | 910 ± 110 | 1451 ± 180
303.15 K | 10.3 ± 1.1 | 28.9 ± 3 | 53.7 ± 5.6 | 81.1 ± 8.5 | 110 ± 12 | 148 ± 16 | 206 ± 22 | 305 ± 34 | 503 ± 58 | 837 ± 99
308.15 K | 7.54 ± 0.78 | 19.1 ± 2 | 35.1 ± 3.6 | 52 ± 5.3 | 69.9 ± 7.2 | 92.1 ± 9.6 | 126 ± 13 | 180 ± 19 | 293 ± 32 | 506 ± 57
313.15 K | 6 ± 0.62 | 14.5 ± 1.5 | 25.9 ± 2.7 | 37 ± 3.8 | 48.8 ± 5 | 61.7 ± 6.4 | 81.8 ± 8.5 | 114 ± 12 | 184 ± 20 | 330 ± 37

CS(C)=O + CCC[N+]1(C)CCCC1.O=S(=O)([N-]S(=O)(=O)C(F)(F)F)C(F)(F)F
101 kPa, x2 = 0
Conditions | viscosity [mPa·s]
298.15 K | 2.118 ± 0.085
308.15 K | 1.758 ± 0.071
318.15 K | 1.489 ± 0.06
328.15 K | 1.28 ± 0.052
338.15 K | 1.116 ± 0.045
348.15 K | 0.983 ± 0.04
358.15 K | 0.874 ± 0.036

COS(=O)(=O)[O-].Cn1cc[n+](C)c1 + CCO
Conditions | viscosity [mPa·s]
328.15 K, 100 kPa, x2 = 0.945 | 0.96 ± 0.4

CCCC[n+]1ccn(C)c1.[Br-] + CCOCCO
viscosity [mPa·s], 100 kPa
Conditions | x1 = 0.1002 | x1 = 0.2001 | x1 = 0.3007 | x1 = 0.3992 | x1 = 0.5001 | x1 = 0.5986 | x1 = 0.7001 | x1 = 0.8005 | x1 = 0.9002 | x1 = 1
298.15 K | 12.5 ± 1.4 | 42.5 ± 4.4 | 88.9 ± 9.2 | 139 ± 14 | 191 ± 20 | 253 ± 27 | 356 ± 39 | 541 ± 62 | 880 ± 100 | 1451 ± 180
303.15 K | 8.68 ± 0.91 | 25.6 ± 2.7 | 51.1 ± 5.3 | 78.5 ± 8.2 | 108 ± 11 | 142 ± 15 | 197 ± 21 | 295 ± 33 | 480 ± 55 | 837 ± 99
308.15 K | 6.44 ± 0.67 | 17.4 ± 1.8 | 32.8 ± 3.4 | 50 ± 5.1 | 67 ± 6.9 | 87.1 ± 9.1 | 117 ± 12 | 171 ± 18 | 278 ± 31 | 506 ± 57
313.15 K | 5.02 ± 0.52 | 12.5 ± 1.3 | 23 ± 2.4 | 34.3 ± 3.5 | 45.3 ± 4.7 | 58.1 ± 6 | 75.6 ± 7.9 | 108 ± 11 | 171 ± 18 | 330 ± 37

Reference: the CheMixHub ionic liquid set
